# In PubChem BioAssay (NCI):
#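 Five concentrations, 48 hours, 96-well plates. TGI is the concentration that stops growth completely.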
# Experiments:
# Experiment in all cases: NCI-60 cell line screen, 48 h
# ACHN renal = tested on: ACHN renal
# CAKI-1 renal = tested on: CAKI-1 renal
# CCRF-CEM leukemia = tested on: CCRF-CEM leukemia
# HCT-15 colon = tested on: HCT-15 colon
# HOP-62 NSCLC = tested on: HOP-62 NSCLC
# HOP-92 NSCLC = tested on: HOP-92 NSCLC
# HS 578T breast = tested on: HS 578T breast
# MDA-MB-231 breast = tested on: MDA-MB-231 breast
# MDA-N = tested on: MDA-N
# OVCAR-4 ovarian = tested on: OVCAR-4 ovarian
# OVCAR-5 ovarian = tested on: OVCAR-5 ovarian
# OVCAR-8 ovarian = tested on: OVCAR-8 ovarian
# PC-3 prostate = tested on: PC-3 prostate
# RPMI-8226 leukemia = tested on: RPMI-8226 leukemia
# SK-MEL-28 melanoma = tested on: SK-MEL-28 melanoma
# SN12C renal = tested on: SN12C renal
# TK-10 renal = tested on: TK-10 renal
SMILES,TGI (ACHN renal) [µM],TGI (CAKI-1 renal) [µM],TGI (CCRF-CEM leukemia) [µM],TGI (HCT-15 colon) [µM],TGI (HOP-62 NSCLC) [µM],TGI (HOP-92 NSCLC) [µM],TGI (HS 578T breast) [µM],TGI (MDA-MB-231 breast) [µM],TGI (MDA-N) [µM],TGI (OVCAR-4 ovarian) [µM],TGI (OVCAR-5 ovarian) [µM],TGI (OVCAR-8 ovarian) [µM],TGI (PC-3 prostate) [µM],TGI (RPMI-8226 leukemia) [µM],TGI (SK-MEL-28 melanoma) [µM],TGI (SN12C renal) [µM],TGI (TK-10 renal) [µM]
O=C(O)C(C(F)(F)F)C(F)(F)F (tested in a mixture with another compound),> 100,> 100,> 100,> 100,> 100,> 100,> 100,> 100,> 100,> 100,> 100,> 100,> 100,> 100,> 100,> 100,> 100
COC(=O)C(Cc1ccccc1)NP(=O)(O)OCC1OC(n2ccc(N)nc2=O)C(O)C1O (stereo not given),> 100,> 100,> 100,> 100,> 100,> 100,> 100,> 100,> 100,> 100,> 100,> 100,> 100,> 100,> 100,> 100,> 100
COc1ccccc1CC1(O)OC(=O)c2ccccc21 (stereo not given),> 100,> 100,> 100,> 100,> 100,> 100,> 100,> 100,> 100,> 100,> 100,> 100,> 100,> 100,> 100,> 100,> 100
C/C(=N\NC(N)=S)C(CN1CCCCC1)C(C1=C(O)c2ccccc2OC1)c1ccccc1 (stereo not given),> 100,> 100,> 100,> 100,> 100,> 100,> 100,> 100,> 100,> 100,> 100,> 100,> 100,73.6,> 100,> 100,> 100
Oc1cc(F)cc2cccnc12,> 92.1,> 100,0.656,> 100,> 100,3.1,> 100,32.9,> 100,> 100,> 100,> 100,> 100,1.17,> 100,> 94.3,> 100
